Measured values: patent publication US20100261766A1, “Phenyl-Oxetanyl-Derivatives” (priority 2007, published 2010)

Columns and labels:
[1] = target: T1, human S1P1 (EDG-1) receptor (Homo sapiens, UniProt P21453); test: S1P1 (EDG-1) GTP[γ-35S] binding assay, membranes of CHO cells; type: biochemical; conditions: agonistic activity in vitro; read-out: S1P-1 GTPyS/EC50
T1 construct: c-myc (N); expressed in transfected cells
Procedure: (§1) A. In Vitro: GPCR Activation Assay Measuring GTP [γ-^35S] Binding to Membranes Prepared from CHO Cells Expressing Human EDG Receptors
S1P1 (EDG-1) GTP [γ-^35S] assay: Homogenized membranes are prepared from CHO cell clones stably expressing a human EDG-1 N-terminal c-myc tag. Cells are grown in large culture dishes (500 cm^2) to a confluence between 80 and 90%. The culture medium is removed and 20 mL ice-cold buffer A (10 mM HEPES, pH 7.4, 10 mM EDTA, complete protease inhibitor cocktail [1 tablet/50 mL]) added. The cells are harvested by scraping and the cell suspension centrifuged at 750×g for 10 min at 4° C. The pellet is resuspended in 10 mL ice-cold buffer B (20 mM HEPES, pH 7.4, 100 mM NaCl, 10 mM MgCl2, 1 mM EDTA). The cell suspension is homogenized on ice, using a Polytron homogenizer at 25000 rpm at three intervals of 20 seconds each. Then the homogenate is centrifuged at 26900×g for 30 min at 4° C. and the membrane protein pellet resuspended by vortexing in cold buffer B. The protein concentration is determined using the Bio Rad Protein Assay and human IgG as standard. The volume of the membrane protein suspension is adjusted to a final concentration of about 2 mg protein/mL. The solution is then once again homogenized (Polytron) on ice at 25000 rpm for 20 seconds before being aliquoted and stored at −80° C.
(§2) Serial dilutions of compounds (stock in 10 mM DMSO) are prepared by first diluting the compounds in DMSO (1:10) followed by a 1:20 dilution into assay buffer (50 mM HEPES, pH 7.4, 5 mM MgCl2, 1 mM CaCl2, 1% fatty acid-free BSA). S1P (1 mM in DMSO/HCl) is diluted directly into assay buffer. The desired amount of membranes (1-5 μg/well) is diluted with assay buffer containing 10 μM GDP, 25 μg/mL Saponin and 5 mg/mL WGA-SPA beads. 9 μL of pre-diluted compound is placed into the bottom of a 96-well deep-well plate. 440 μL of the membrane-WGA-SPA bead slurry is added and the plate stirred for 15 minutes. Then twice 210 μL are transferred each into a 96-well Optiplate containing 15 μL GTP [γ-^35S] (4 nM in assay buffer). After incubation at room temperature for 120 minutes under constant shaking the plates are centrifuged for 10 minutes at 1000 g to pellet the membrane-SPA beads slurry. Then the plates are measured in a TOPcount NXT. Eight different concentrations of compound are used to generate a concentration response curve (using two data points per concentration) and the corresponding EC50 value using the curve-fitting tool of GraphPad Prism.

S1P5 receptor = S1P5 receptor (Homo sapiens, UniProt Q9H228); test: S1P5 GTP[γ-35S] binding assay, membranes of CHO cells; type: biochemical; conditions: agonistic activity in vitro; read-out: S1P-5 GTPyS/EC50
Procedure: as §1, §2
For each membrane preparation, titration experiments are first run with S1P control to determine the optimal amount of membranes to be added per assay well.

circulating lymphocytes = test: Blood lymphocyte depletion in rats; type: in vivo, Lewis rats; conditions: for recovery of lymphocyte counts back to baseline: within 48 hours
Procedure: Measurement of circulating lymphocytes: Lewis rats (male, 6-12 weeks old) are orally administered with 0.1 to 5 mg/kg of compound (4 ml/kg vehicle, e.g. in max. 2% DMSO/max. 2% PEG200/water or 0.5% methyl cellulose). A vehicle group is included as negative control.
Blood is collected from the sublingual vein at baseline (0 h) and 2, 6, 24 and 48 hours after administration under short isoflurane anesthesia. Whole blood samples are subjected to hematology analysis. Peripheral lymphocyte counts are determined using an automated analyzer. Two to four rats are used to assess the lymphocyte counts of each dose.

[2] = test system: experimental autoimmune encephalomyelitis (EAE); test: Acute EAE model; type: in vivo, Lewis rats; conditions: 10 mg/kg b.i.d., oral gavage, days 0-13
[3] = test system: experimental autoimmune encephalomyelitis (EAE); test: Chronic-progressive EAE model (therapeutic treatment); type: in vivo, DA rat; conditions: therapeutic treatment after peak of disease; from day 15 post-immunization (after 4 days of treatment) until end of experiment; scale 0-5
[4] = test system: experimental autoimmune uveitis (EAU); test: S-antigen-induced experimental autoimmune uveitis (EAU); type: in vivo, Lewis rats; conditions: 3 and 10 mg/kg bid p.o., day 7 to day 18 post-immunization

S1P5 receptor, sequence (Q9H228 whole entry): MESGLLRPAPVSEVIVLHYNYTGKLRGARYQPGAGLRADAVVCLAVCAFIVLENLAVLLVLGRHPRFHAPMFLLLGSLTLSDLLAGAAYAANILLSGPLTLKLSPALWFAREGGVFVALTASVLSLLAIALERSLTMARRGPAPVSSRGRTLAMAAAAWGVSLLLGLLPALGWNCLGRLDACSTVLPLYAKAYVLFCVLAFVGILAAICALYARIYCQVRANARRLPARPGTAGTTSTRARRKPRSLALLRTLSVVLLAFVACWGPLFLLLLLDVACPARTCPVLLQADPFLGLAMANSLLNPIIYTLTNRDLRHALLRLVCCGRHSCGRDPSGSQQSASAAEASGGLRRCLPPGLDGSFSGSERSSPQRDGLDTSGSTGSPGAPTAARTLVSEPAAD
T1 sequence (P21453 whole entry): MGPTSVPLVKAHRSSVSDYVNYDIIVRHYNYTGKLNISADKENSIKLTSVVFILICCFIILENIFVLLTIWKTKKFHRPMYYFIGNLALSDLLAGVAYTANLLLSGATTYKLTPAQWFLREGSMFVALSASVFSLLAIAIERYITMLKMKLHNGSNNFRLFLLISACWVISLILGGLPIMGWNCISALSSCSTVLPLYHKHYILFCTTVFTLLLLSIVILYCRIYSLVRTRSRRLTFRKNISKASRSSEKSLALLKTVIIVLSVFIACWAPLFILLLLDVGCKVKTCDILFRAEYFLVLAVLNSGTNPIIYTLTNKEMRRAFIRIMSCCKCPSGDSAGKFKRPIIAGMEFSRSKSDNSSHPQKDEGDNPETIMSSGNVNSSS

SMILES	EC50 [1] [µM]	EC50 (S1P5 receptor) [µM]	recovery of lymphocyte counts back to baseline (circulating lymphocytes; 1 mg/kg p.o.)	recovery of lymphocyte counts back to baseline (circulating lymphocytes; 5 mg/kg p.o.)	peripheral lymphocyte counts (circulating lymphocytes; 0.1 to 5 mg/kg p.o., Lewis rats)	time of maximal reduction of peripheral lymphocyte counts post-administration (circulating lymphocytes; 1 or 5 mg/kg p.o., Lewis rats) [h]	effect on disease symptoms in acute EAE [2]	clinical scores in chronic-progressive EAE [3]	protection from autoimmune uveitis [4]
CCOc1ccc(-c2nc(-c3ccc(C4(N)COC4)cc3)no2)cc1C#N [Example 4]	0.017	0.3	–	–	–	–	–	–	–
CC(=O)c1cc(-c2nc(-c3ccc(C4(O)COC4)cc3)no2)ccc1OC(C)C [Example 5]	0.025	0.31	–	–	–	–	–	–	–
CCOc1ccc(-c2nc(-c3ccc(C4(O)COC4)cc3)no2)cc1C#N [Example 6, 5-{3-[4-(3-Hydroxy-oxetan-3-yl)-phenyl]-[1,2,4]oxadiazol-5-yl}-2-ethoxy-benzonitrile]	0.029	0.28	–	–	–	–	–	–	–

These reach a lower EC50 [1]. Values come first.

EC50 [1] [µM]	EC50 (S1P5 receptor) [µM]	SMILES	recovery of lymphocyte counts back to baseline (circulating lymphocytes; 1 mg/kg p.o.)	recovery of lymphocyte counts back to baseline (circulating lymphocytes; 5 mg/kg p.o.)	peripheral lymphocyte counts (circulating lymphocytes; 0.1 to 5 mg/kg p.o., Lewis rats)	time of maximal reduction of peripheral lymphocyte counts post-administration (circulating lymphocytes; 1 or 5 mg/kg p.o., Lewis rats) [h]	effect on disease symptoms in acute EAE [2]	clinical scores in chronic-progressive EAE [3]	protection from autoimmune uveitis [4]
0.01	0.09	CC(C)Oc1ccc(-c2nc(-c3ccc(C4(N)COC4)cc3)no2)cc1C#N [Example 1, 5-{3-[4-(3-Amino-oxetan-3-yl)-phenyl]-[1,2,4]oxadiazol-5-yl}-2-iso-propoxy-benzonitrile]	fully	partially recover back to baseline	dose-dependent reduction	6	prevention of disease symptoms	< 0.5	dose-dependent protection from autoimmune uveitis
0.006	0.03	CC(C)Oc1ccc(-c2nc(-c3ccc(C4(O)COC4)cc3)no2)cc1C#N [Example 2]	–	–	–	–	–	–	–
0.013	0.18	CC(=O)c1cc(-c2nc(-c3ccc(C4(N)COC4)cc3)no2)ccc1OC(C)C [Example 3]	–	–	–	–	–	–	–
